Measured values: ChEMBL document CHEMBL1201862, “PubChem BioAssay data set” (2004)
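All cell lines were grown in 96-well plates and treated with compound for 48 hours. Abbreviation: GI50, concentration required for 50% inhibition of growth.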 Calls of active or inactive are those of the source. Rule as the data show it: active = GI50 up to about 1.1 µM and inactive = higher.

Tests used:
Assay in all cases: inhibition of tumour cell growth, NCI panel, 48 h
[1] = test system: 786-0
[2] = test system: A498
[3] = test system: ACHN
[4] = test system: CAKI-1
[5] = test system: COLO 205
[6] = test system: DU-145
[7] = test system: IGROV-1
[8] = test system: MCF7
[9] = test system: MDA-N
[10] = test system: NCI-H23
[11] = test system: NCI-H460
[12] = test system: NCI-H522
[13] = test system: OVCAR-8
[14] = test system: PC-3
[15] = test system: RPMI-8226
[16] = test system: RXF 393
[17] = test system: SK-MEL-2
[18] = test system: SK-MEL-5
[19] = test system: SR
[20] = test system: T47D

Row | Structure (SMILES) | GI50 [1] | GI50 [2] | GI50 [3] | GI50 [4] | GI50 [5] | GI50 [6] | GI50 [7] | GI50 [8] | GI50 [9] | GI50 [10] | GI50 [11] | GI50 [12] | GI50 [13] | GI50 [14] | GI50 [15] | GI50 [16] | GI50 [17] | GI50 [18] | GI50 [19] | GI50 [20]
1 | COc1ccc(C2=CN3CCC[C@H]3C=C2c2cc(O)c(OC)c(OC)c2)cc1OC | 0.00371 µM (active) | 0.005 µM (active) | 0.00302 µM (active) | 0.00382 µM (active) | 0.0115 µM (active) | 0.00398 µM (active) | 0.0104 µM (active) | 0.005 µM (active) | 0.00337 µM (active) | 0.00378 µM (active) | 0.00316 µM (active) | 0.00418 µM (active) | 0.00377 µM (active) | 0.0124 µM (active) | 0.00519 µM (active) | 0.00424 µM (active) | 0.00314 µM (active) | 0.0038 µM (active) | 0.00394 µM (active) | 0.00371 µM (active)
2 | Cc1cccc2oc3c(c(=O)c12)CC(O)C(C)(C)O3 (stereo not drawn) | > 100 µM (inactive) | > 100 µM (inactive) | > 100 µM (inactive) | > 100 µM (inactive) | > 100 µM (inactive) | > 100 µM (inactive) | > 100 µM (inactive) | > 100 µM (inactive) | > 100 µM (inactive) | > 100 µM (inactive) | > 100 µM (inactive) | 35.9 µM (inactive) |  | > 100 µM (inactive) | 74.1 µM (inactive) | 74 µM (inactive) | > 100 µM (inactive) | > 100 µM (inactive) | 56.1 µM (inactive) | > 100 µM (inactive)
3 | COc1cc(NCc2ccc3nc(OC)c(OC)nc3c2)cc(OC)c1OC | > 100 µM (inactive) | > 100 µM (inactive) | > 100 µM (inactive) | > 100 µM (inactive) | > 100 µM (inactive) | > 100 µM (inactive) | > 100 µM (inactive) | 69.5 µM (inactive) | > 100 µM (inactive) | > 100 µM (inactive) | > 100 µM (inactive) | 86.5 µM (inactive) | > 100 µM (inactive) | 89.1 µM (inactive) |  | > 100 µM (inactive) | > 100 µM (inactive) | > 100 µM (inactive) | 89.9 µM (inactive) | 18.6 µM (inactive)
4 | O=C1NC(=O)[C@@]2(CC[C@@H](O)C2)c2ccncc21 [SESBANINE] | > 100 µM (inactive) | > 100 µM (inactive) | > 100 µM (inactive) | > 100 µM (inactive) | > 100 µM (inactive) | > 100 µM (inactive) | > 100 µM (inactive) | > 100 µM (inactive) | > 100 µM (inactive) | > 100 µM (inactive) | > 100 µM (inactive) | > 100 µM (inactive) | > 100 µM (inactive) | > 100 µM (inactive) |  | > 100 µM (inactive) | > 100 µM (inactive) | > 100 µM (inactive) | > 100 µM (inactive) | > 100 µM (inactive)
5 | COc1ccc(/C(Br)=C2\OC(=O)c3ccccc32)cc1 | > 10 µM (inactive) |  | > 10 µM (inactive) | > 10 µM (inactive) | > 10 µM (inactive) | > 10 µM (inactive) | > 10 µM (inactive) | > 10 µM (inactive) | > 10 µM (inactive) | > 10 µM (inactive) | > 10 µM (inactive) | > 10 µM (inactive) | > 10 µM (inactive) | > 10 µM (inactive) | > 10 µM (inactive) | > 10 µM (inactive) | > 10 µM (inactive) | > 10 µM (inactive) | > 10 µM (inactive) | > 10 µM (inactive)
6 | COc1ccc2c(CCN)c(C(=O)O)[nH]c2c1 | > 100 µM (inactive) | > 100 µM (inactive) | > 100 µM (inactive) | > 100 µM (inactive) | > 100 µM (inactive) | > 100 µM (inactive) | > 100 µM (inactive) | > 100 µM (inactive) | > 100 µM (inactive) | > 100 µM (inactive) | > 100 µM (inactive) | > 100 µM (inactive) | > 100 µM (inactive) | > 100 µM (inactive) | > 100 µM (inactive) | > 100 µM (inactive) | > 100 µM (inactive) | > 100 µM (inactive) |  | > 100 µM (inactive)
7 | Cc1ccc2c(O)cc(-c3ccsc3)nc2n1 | 4.58 µM (inactive) | 4.07 µM (inactive) | 6.98 µM (inactive) | 6.95 µM (inactive) | 3.21 µM (inactive) | 9.79 µM (inactive) | 4.74 µM (inactive) | 3.08 µM (inactive) | 0.454 µM (active) | 2.77 µM (inactive) | 4.01 µM (inactive) | 3.67 µM (inactive) | 4.06 µM (inactive) | 4.81 µM (inactive) | 2.2 µM (inactive) | 7.53 µM (inactive) |  | 2.71 µM (inactive) | 0.361 µM (active) | 5.01 µM (inactive)
8 | O=C1c2cc3ccccc3cc2C2(c3ccc(Cl)cc3)N[C@H]3CCCC[C@@H]3N12 (stereo partly drawn) | 11.2 µM (inactive) | 18.3 µM (inactive) | 15.2 µM (inactive) | 22.6 µM (inactive) | 15.3 µM (inactive) | 17.9 µM (inactive) | 13.3 µM (inactive) | 24.7 µM (inactive) | 18.1 µM (inactive) | 14.6 µM (inactive) | 14.9 µM (inactive) |  | 5.77 µM (inactive) | 14.9 µM (inactive) | 18.4 µM (inactive) | 9.89 µM (inactive) | 16.4 µM (inactive) | 16.7 µM (inactive) | 14.7 µM (inactive) | 7.4 µM (inactive)
9 | O/N=C1\C=Cc2nn(-c3ccccc3)nc2\C1=N/O | 6.11 µM (inactive) |  | 2.3 µM (inactive) | 4.27 µM (inactive) | 3.7 µM (inactive) | 1.07 µM (active) | 2.79 µM (inactive) | 2.69 µM (inactive) | 7.96 µM (inactive) | 3.77 µM (inactive) | 3.07 µM (inactive) | 2.94 µM (inactive) | 3.01 µM (inactive) | 3.25 µM (inactive) | 3.71 µM (inactive) |  | 30.3 µM (inactive) | 2.24 µM (inactive) | 3.64 µM (inactive) | 5.47 µM (inactive)
10 | Cc1ccc(/C=C2\Sc3scc(-c4ccccc4)[n+]3C2=O)cc1 | 22.3 µM (inactive) |  | 20.7 µM (inactive) |  | 20.7 µM (inactive) | 24.7 µM (inactive) | 18 µM (inactive) | 37.5 µM (inactive) | 18 µM (inactive) | 17.5 µM (inactive) | 16.8 µM (inactive) | 3.4 µM (inactive) | 22.4 µM (inactive) | 29 µM (inactive) | 8.28 µM (inactive) | 25.9 µM (inactive) | 24.1 µM (inactive) | 21.6 µM (inactive) | 5 µM (inactive) | 48.3 µM (inactive)
11 | C=CCN(Cc1ccncc1)C(=O)C(O)(c1ccccc1)c1ccccc1 | > 100 µM (inactive) |  | > 100 µM (inactive) | 31.5 µM (inactive) | 45.8 µM (inactive) | > 100 µM (inactive) | > 100 µM (inactive) | 59.3 µM (inactive) | 45.8 µM (inactive) | 54.3 µM (inactive) |  | 34.3 µM (inactive) | 86.9 µM (inactive) | 37.2 µM (inactive) | 22 µM (inactive) | > 100 µM (inactive) |  | 62.8 µM (inactive) | 32.7 µM (inactive) | 39.9 µM (inactive)
12 | CNC(=O)N1CN(c2ccccc2)C2(CCN(Cc3ccccc3)CC2)C1=O | > 100 µM (inactive) |  | > 100 µM (inactive) | > 100 µM (inactive) | 35.6 µM (inactive) | > 100 µM (inactive) | 5 µM (inactive) | 8.93 µM (inactive) | 29.2 µM (inactive) | > 100 µM (inactive) |  | > 100 µM (inactive) | > 100 µM (inactive) | 93.1 µM (inactive) | 43.4 µM (inactive) | > 100 µM (inactive) |  | 56.1 µM (inactive) | 15.7 µM (inactive) | 1.87 µM (inactive)
13 | C=C1CC(Cn2cc(Br)c(=O)[nH]c2=O)(c2ccc(-c3ccccc3)cc2)OC1=O (stereo not drawn) | 1.02 µM (active) | 0.776 µM (active) | 1.83 µM (inactive) | 1.13 µM (inactive) | 0.621 µM (active) | 1.66 µM (inactive) | 1.4 µM (inactive) | 0.427 µM (active) | 0.83 µM (active) | 0.993 µM (active) | 6.25 µM (inactive) | 0.655 µM (active) | 0.466 µM (active) | 1.55 µM (inactive) | 0.128 µM (active) |  | 1.49 µM (inactive) | 1.27 µM (inactive) | 0.32 µM (active) | 2 µM (inactive)
14 | N=C(c1cccs1)C1(N2CCCCC2)CCCCC1 | 70.5 µM (inactive) | 17.7 µM (inactive) | 16.9 µM (inactive) | 15.3 µM (inactive) |  | 15.8 µM (inactive) | 22.3 µM (inactive) | 16.6 µM (inactive) | 49.5 µM (inactive) | 24.3 µM (inactive) | 15.7 µM (inactive) | 14.8 µM (inactive) |  | 18.7 µM (inactive) | 16.5 µM (inactive) | 14.6 µM (inactive) | 16.6 µM (inactive) |  | 16.9 µM (inactive) | 11.6 µM (inactive)
15 | Cc1cccc2c(N)c3cccc(C(=O)NCC[N+](C)(C)Cc4c([N+](=O)[O-])ncn4C)c3nc12 | 6.5 µM (inactive) | 47.6 µM (inactive) | 10.8 µM (inactive) | 2.69 µM (inactive) | 24.3 µM (inactive) | 46.8 µM (inactive) | 27.3 µM (inactive) | 12.8 µM (inactive) | 47.1 µM (inactive) | 17.5 µM (inactive) |  | 12.4 µM (inactive) | 26.3 µM (inactive) | 36.6 µM (inactive) | 31.4 µM (inactive) | 48 µM (inactive) | > 80.5 µM (inactive) | 26.1 µM (inactive) | 23 µM (inactive) | 67.8 µM (inactive)
